Measured values from US5886178A, “3-aroylbenzylpyridazinone derivatives” (Syntex (U.S.A.) Inc., priority 1997, dated 1999).

Columns and labels:
COX I = COX I (Homo sapiens, UniProt P23219); assay: Inhibition of COX I in vitro, partially purified enzyme, radiometric assay; format: biochemical; set-up: made in house; details: 20 micromolar arachidonic acid
Description: (§1) The COX I and COX II inhibitory activity of compounds of this invention in vitro was determined using partially purified COX I and COX II enzymes, prepared as described in J. Barnett et al, Biochim. Biophys.
(§2) COX I and COX II samples were diluted with Tris-HCl buffer (50 mM Tris-HCl, pH 7.9) containing 2 mM EDTA and 10% glycerol and reconstituted by incubating first with 2 mM phenol for 5 minutes and then with 1 micromolar hematin for an additional 5 minutes. 125 μl of the reconstituted COX I or COX II enzyme were preincubated for 10 minutes at room temperature in a shaking water bath with the compounds of the invention dissolved in 2-15 μl of DMSO or the carrier vehicles (control samples). The enzyme reaction was initiated by adding 25 μl of 1-[14C]arachidonic acid (80,000-100,000 cpm/tube; 20 micromolar final concentration) and the reaction was allowed to continue for an additional 45 seconds. The reaction was terminated by adding 100 μl of 2N HCl and 750 μl water. An aliquot (950 μl) of the reaction mixture was loaded onto a 1 ml C18 Sep-Pak column (J. T. Baker, Phillipsburg, N.J.) which had been previously washed with 2-3 ml methanol and equilibrated with 5-6 ml distilled water. Oxygenated products were quantitatively eluted with 3 ml of acetonitrile/water/acetic acid (50:50:0.1, v/v) and the radioactivity in the eluate determined in a scintillation counter.

[1] = tested on: prostaglandin E2 synthesis; assay: Inhibition of eicosanoid (PGE2) synthesis in vivo, carrageenan air-pouch model in rats; set-up: species or system rat; details: oral, male rats
Description: In this assay, an air-pouch is created in the rat and the PGE2 levels in the air-pouch exudate are measured by enzyme immunoassay. Briefly, male rats were anesthetized using a 60:40 CO2 :O2 mixture and subsequently injected subcutaneously with 20 ml of sterilized air, under aseptic conditions, in the proximal area of the dorsum. This injection of sterile air causes the creation of a subcutaneous "air pouch". The next day, a further 10 ml of sterile air was injected into the previously formed pouch using the same technique. […] Control rats received vehicle alone. After 30 minutes, 5 ml of a 0.5% solution of carrageenan (Sigma, Lambda Type IV) was injected into the air pouch. The rats were euthanized 3 hr after the compound administration. […] The total exudate volume was recorded, and the samples were analyzed for PGE2 and 6-keto PGF1 by ELISA (Titerzyme®, PerSeptive Diagnostics) and TxB2 by radioimmuno assay (New England Nuclear Research, Catalog No. NEK-037), according to the manufacturer's directions.
The mean concentrations of PGE2 were calculated for each group. The anti-inflammatory activity of test materials is expressed as the percent inhibition of PGE2 formation in the test group relative to the control group.

COX II = biological target: T1, COX II (Homo sapiens, UniProt P35354); assay: Inhibition of COX II in vitro, partially purified enzyme, radiometric assay; format: biochemical; set-up: made in house; details: 20 micromolar arachidonic acid
T1 sequence (P35354 18-604): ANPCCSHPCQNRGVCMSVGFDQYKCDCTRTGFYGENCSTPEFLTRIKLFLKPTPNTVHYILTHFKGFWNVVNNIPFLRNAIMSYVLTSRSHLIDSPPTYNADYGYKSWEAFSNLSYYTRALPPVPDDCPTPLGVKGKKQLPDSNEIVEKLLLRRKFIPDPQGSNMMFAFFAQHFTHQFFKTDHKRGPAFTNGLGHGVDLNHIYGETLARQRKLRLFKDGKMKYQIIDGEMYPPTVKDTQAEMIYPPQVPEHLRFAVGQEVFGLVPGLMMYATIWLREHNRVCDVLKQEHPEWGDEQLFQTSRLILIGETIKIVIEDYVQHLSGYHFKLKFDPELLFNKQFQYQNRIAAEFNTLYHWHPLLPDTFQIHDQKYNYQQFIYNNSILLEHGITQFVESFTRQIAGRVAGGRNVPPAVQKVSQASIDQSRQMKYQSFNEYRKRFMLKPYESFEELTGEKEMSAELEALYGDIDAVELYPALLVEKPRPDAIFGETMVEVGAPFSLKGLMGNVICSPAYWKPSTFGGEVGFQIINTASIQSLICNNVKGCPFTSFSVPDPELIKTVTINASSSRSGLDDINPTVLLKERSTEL
Description: as §1, §2

[2] = Acetic Acid-induced Rat Writhing Assay (analgesic activity); format: in vivo; details: 10 mg/Kg, oral, male Sprague Dawley rats
Text: The analgesic activity of compounds of this invention may be determined by the Acetic Acid-induced Rat Writhing Assay, using a modification of the method described in Berkenkopf, J. W. and Weichman, B. M. "Production of Prostacyclin in Mice following Intraperitoneal Injection of Acetic Acid, Phenylbenzoquinone and Zymosan: Its Role in the Writhing Response". Prostaglandins: 36: 693-70 (1988). This assay is one of several acute assays which have been used to assess the analgesic activity of NSAIDs, and is considered predictive of human efficacy. The test materials were administered orally to male Sprague Dawley rats in a volume of 1 ml/100 g body weight as solutions or suspensions in an aqueous vehicle containing 0.9% NaCl, 0.5% sodium carboxymethyl-cellulose, 0.4% polysorbate 80, 0.9% benzyl alcohol and 97.3% water. Control rats received vehicle alone. One hour after compound administration, 0.3 ml/100 g body weight of 0.75% solution of acetic acid was injected intraperitoneally. The acetic acid injection induces a series of characteristic writhing responses, which were counted over the period between 15 and 30 minutes after the injection. The analgesic activity of test materials is expressed as the percentage inhibition of writhing in the test group relative to the control group.

[3] = Carrageenan-induced paw edema in the rat (anti-inflammatory activity); format: in vivo; details: 3 h, 10 mg/Kg, oral, female rats, read-out: % inhibition of increase in hind paw weight
Description: The anti-inflammatory activity of compounds of this invention was determined by measuring the inhibition of carrageenan-induced paw edema in the rat, using a modification of the method described in Winter C. k et al (1962) "Carrageenan-Induced Edema in Hind Paw of the Rat as an Assay for Anti-inflammatory Drugs". Proc. Soc. Exp. Biol. Med. 111: 544-547. This assay has been used as a primary in vivo screen for anti-inflammatory activity of most NSAIDs, and is considered predictive of human efficacy. Briefly, test materials were administered orally to female rats in a volume of 1 ml prepared as solutions or suspensions in an aqueous vehicle containing 0.9% NaCl, 0.5% sodium carboxymethyl-cellulose, 0.4% polysorbate 80, 0.9% benzyl alcohol and 97.3% distilled water. Control rats received vehicle alone. After 1 hr 0.05 ml of a 0.5% solution of Carrageenan (Type IV Lambda, Sigma Chemical Co.) in 0.9% saline was injected into the subplantar region of the right hind paw. Three hours later the rats were euthanized in a carbon dioxide atmosphere; hind paws were removed by severing at the tatso-crural joint; and the left and right paws were weighed. The increase in weight of the right paw over the left paw was obtained for each animal and the mean increases were calculated for each group. The anti-inflammatory activity of the test materials is expressed as the percent inhibition of the increase in hind paw weight of the test group relative to the vehicle-dosed control group.
The anti-inflammatory activities (expressed as % inhibition) of some of the compounds of the invention were: […]

[4] = Alzheimer's patients; Rogers, J., et. al., Neurology, (1993), 43, 1609; cited from earlier work

COX I, sequence (P23219 24-599): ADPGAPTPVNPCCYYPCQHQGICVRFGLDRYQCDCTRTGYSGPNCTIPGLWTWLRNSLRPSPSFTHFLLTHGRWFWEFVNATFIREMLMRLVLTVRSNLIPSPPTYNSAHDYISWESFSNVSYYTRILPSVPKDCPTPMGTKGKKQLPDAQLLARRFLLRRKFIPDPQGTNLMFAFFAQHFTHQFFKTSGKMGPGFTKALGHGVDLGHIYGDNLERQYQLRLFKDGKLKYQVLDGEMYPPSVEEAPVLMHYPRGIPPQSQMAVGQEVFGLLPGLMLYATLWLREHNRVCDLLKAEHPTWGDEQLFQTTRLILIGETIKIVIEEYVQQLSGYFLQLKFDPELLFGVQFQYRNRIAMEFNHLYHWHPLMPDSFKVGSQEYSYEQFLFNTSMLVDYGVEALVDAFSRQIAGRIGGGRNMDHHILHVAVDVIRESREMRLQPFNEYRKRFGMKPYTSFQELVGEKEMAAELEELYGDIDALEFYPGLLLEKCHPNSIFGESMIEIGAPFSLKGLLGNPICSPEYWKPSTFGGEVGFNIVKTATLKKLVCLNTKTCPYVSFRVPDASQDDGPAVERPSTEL

IC50 (COX I) [µM]	IC50 (COX II) [µM]	SMILES	% inhibition of air pouch PGE2 formation ([1]; 10 mg/Kg) [%]	% inhibition of writhing responses [2] [%]	inhibition in vivo at 10 mg/kg [3] [%]	% inhibition of air pouch PGE2 formation ([1]; 2-5 mg/Kg) [%]	effect on cognitive decline [4]
57	0.1	COc1ccc(C(=O)c2cccc(Cc3ccc(=O)[nH]n3)c2Cl)cc1 [Cpd 2, 6-[3-(4-methoxybenzoyl)-2-chlorobenzyl]-2H-pyridazin-3-one]	32	9	20		
		COc1ccc2c(c1)c(CC(=O)O)c(C)n2C(=O)c1ccc(Cl)cc1 [Indomethacin, reference compound]				> 70	inhibit the cognitive decline of Alzheimer's patients
